Data on twelve compounds can be found in patent US20260206763A1, “AMIDE COMPOUNDS OR SALTS THEREOF, BACTERICIDAL AGENTS FOR AGRICULTURE AND HORTICULTURE CONTAINING SAID COMPOUNDS, AND METHOD OF USING SAME” (NIHON NOHYAKU CO., LTD., priority 2022, published 2026).

Common to all, as to type: cell-based
Test [1] deals with Botryosphaeria berengeriana.
The next test deals with Sclerotinia sclerotirum. In words: microbe, parasite or virus in culture. The conditions noted are these: read-out: median effective concentration (EC50), mycelium growth inhibitory activity.
For another test, the system named is Botrytis cinerea. In words: microbe, parasite or virus in culture. Particulars: read-out: median effective concentration (EC50), mycelium growth inhibitory activity.
The test system of a further test is Cochliobolus miyabeanus. The experiment in a line: Antifungal activity test, mycelium growth inhibition on PDA medium. Particulars: Bipolaris oryzae, read-out: median effective concentration (EC50), mycelium growth inhibitory activity.
The next test deals with Fusarium graminearum. In words: microbe, parasite or virus in culture. The conditions noted are these: read-out: median effective concentration (EC50), mycelium growth inhibitory activity.

Bounds are passed on as bounds.

With `O=C(NCc1ccccn1)C1(c2ccc(C(F)(F)F)cc2)CC1(Cl)Cl` (centres unmarked) [I-A-36], the “median effective concentration (EC50), spore germination inhibitory activity” value in test [1] is given as at most 200 ppm.

With `O=C1c2ccccc2COc2ccc(C3(C(=O)NCc4ccccn4)CC3(Cl)Cl)cc21` (centres unmarked) [I-A-78], the EC50 in the test with Sclerotinia sclerotirum, with Botrytis cinerea and with Cochliobolus miyabeanus was at most 200 µg/mL throughout.

For `CC(C)(C)c1ccc(C2(C(=O)NCc3ccccn3)CC2(Cl)Cl)cc1` (centres unmarked) [I-A-101], the EC50 in the test on Sclerotinia sclerotirum, in the test with Fusarium graminearum, in the test on Botrytis cinerea and with Cochliobolus miyabeanus was at most 200 µg/mL in each case.

Turning to `O=C(NCc1ccccn1)C1(c2ccc(-c3noc(C(F)(F)F)n3)cc2)CC1(Cl)Cl` (centres unmarked) [I-A-132], the EC50 in the test with Sclerotinia sclerotirum, in the test with Fusarium graminearum, in the test with Botrytis cinerea and in the test on Cochliobolus miyabeanus was at most 200 µg/mL throughout.

With `O=C(NCc1ccccn1)C1(c2ccc(N=C(c3ccccc3)c3ccccc3)cc2)CC1(Cl)Cl` (centres unmarked) [I-A-159], the EC50 with Sclerotinia sclerotirum, with Botrytis cinerea and with Cochliobolus miyabeanus was at most 200 µg/mL each time.

With `Cc1ccc(CNC(=O)C2(c3ccc(I)cc3)CC2(Cl)Cl)nc1` (centres unmarked) [I-A-257], the EC50 in the test with Sclerotinia sclerotirum, in the test with Fusarium graminearum, in the test with Botrytis cinerea and in the test with Cochliobolus miyabeanus was at most 200 µg/mL throughout.

For the compound `Cc1ccc(CNC(=O)C2(c3ccc(-c4ccccc4F)cc3)CC2(Cl)Cl)nc1` (centres unmarked) [I-A-261], the EC50 in the test on Sclerotinia sclerotirum, in the test with Fusarium graminearum, with Botrytis cinerea and in the test with Cochliobolus miyabeanus was at most 200 µg/mL each time.

Turning to `Cc1ccc(CNC(=O)C2(c3ccc(C4=CCCC4)cc3)CC2(Cl)Cl)nc1` (centres unmarked) [I-A-267], the EC50 with Sclerotinia sclerotirum, with Fusarium graminearum, in the test with Botrytis cinerea and in the test with Cochliobolus miyabeanus was at most 200 µg/mL in each case.

For the compound `Cc1ccc(CNC(=O)C2(c3ccc(C4=CCCCC4)cc3)CC2(Cl)Cl)nc1` (centres unmarked) [I-A-268], the EC50 in the test on Sclerotinia sclerotirum, in the test on Fusarium graminearum, in the test on Botrytis cinerea and in the test on Cochliobolus miyabeanus was at most 200 µg/mL each time.

Regarding `Cc1ccc(CNC(=O)C2(c3ccc(S(=O)(=O)c4ccccc4)cc3)CC2(Cl)Cl)[n+]([O-])c1` (centres unmarked) [I-A-280], the EC50 with Sclerotinia sclerotirum, with Fusarium graminearum and with Cochliobolus miyabeanus was at most 200 µg/mL each time.

As for `Cc1ccc(CNC(=O)C2(c3ccc(Oc4nc5ccccc5s4)cc3)CC2(Cl)Cl)nc1` (centres unmarked) [I-A-288], the EC50 with Sclerotinia sclerotirum, in the test with Fusarium graminearum, in the test on Botrytis cinerea and in the test on Cochliobolus miyabeanus was at most 200 µg/mL each time.

Take `CC(C)(C)c1ccc(C2(C(=O)N3CCc4cccnc4C3)CC2(Cl)Cl)cc1` (centres unmarked) [I-A-371]: the EC50 in the test with Sclerotinia sclerotirum, in the test on Fusarium graminearum and with Cochliobolus miyabeanus was at most 200 µg/mL throughout.
